33 molecules from patent US20230023559A1, “ARYLMETHYLENE HETEROCYCLIC COMPOUNDS AS KV1.3 POTASSIUM SHAKER CHANNEL BLOCKERS” (D. E. Shaw Research, LLC, priority 2019, published 2023) can be followed below.

One assay has as its target T1, Kv1.3 potassium channel (Homo sapiens, UniProt P22001).
T1 construct: expressed in transfected cells
The experiment in a line: Kv1.3 potassium channel blocker activity, automated whole-cell patch clamp (Patchliner). It is filed as cell-based. The conditions noted are these: CHO-K1 cells stably expressing Kv1.3; whole cell current inhibition; read-out: Kv1.3_IC50. In short, it runs like this: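 Peak-current block was recorded on stable Kv1.3 CHO-K1 cells by automated patch clamp, stepping from a −90 mV holding potential to +40 mV for 100 ms at 0.1 Hz with 10 s breaks between trains. Online P/4 leak subtraction, 10 kHz sampling; compound exposure under 10 s per train.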
(In general: In patch-clamp work, channel activity is measured electrically.)

Another assay concerns the target hERG channel (Homo sapiens, UniProt Q12809). The experiment in a line: hERG electrophysiology, automated whole-cell patch clamp (Patchliner). On the technique in general: hERG is a cardiac potassium channel; its block is linked to QT prolongation.

The term pIC50 denotes the negative decadic logarithm of the IC50, by convention in mol/L.

SMILES strings stand for the structures. pIC50: −log10 of the molar value.

T1 sequence (P22001 whole entry): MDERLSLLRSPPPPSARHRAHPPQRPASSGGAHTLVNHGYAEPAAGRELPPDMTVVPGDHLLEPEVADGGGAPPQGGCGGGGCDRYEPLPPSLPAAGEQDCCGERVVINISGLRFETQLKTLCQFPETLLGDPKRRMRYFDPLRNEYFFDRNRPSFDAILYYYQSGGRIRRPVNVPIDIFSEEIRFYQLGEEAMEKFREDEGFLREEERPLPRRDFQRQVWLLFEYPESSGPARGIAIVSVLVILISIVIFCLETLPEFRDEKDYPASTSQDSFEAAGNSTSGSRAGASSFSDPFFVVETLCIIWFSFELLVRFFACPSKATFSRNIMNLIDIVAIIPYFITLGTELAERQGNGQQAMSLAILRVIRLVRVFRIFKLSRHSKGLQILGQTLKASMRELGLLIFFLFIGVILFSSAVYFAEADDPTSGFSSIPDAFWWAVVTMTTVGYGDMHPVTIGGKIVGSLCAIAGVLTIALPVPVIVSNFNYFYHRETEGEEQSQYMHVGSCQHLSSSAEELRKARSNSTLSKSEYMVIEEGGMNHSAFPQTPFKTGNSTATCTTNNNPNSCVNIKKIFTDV
Sequence of hERG channel (Q12809 whole entry): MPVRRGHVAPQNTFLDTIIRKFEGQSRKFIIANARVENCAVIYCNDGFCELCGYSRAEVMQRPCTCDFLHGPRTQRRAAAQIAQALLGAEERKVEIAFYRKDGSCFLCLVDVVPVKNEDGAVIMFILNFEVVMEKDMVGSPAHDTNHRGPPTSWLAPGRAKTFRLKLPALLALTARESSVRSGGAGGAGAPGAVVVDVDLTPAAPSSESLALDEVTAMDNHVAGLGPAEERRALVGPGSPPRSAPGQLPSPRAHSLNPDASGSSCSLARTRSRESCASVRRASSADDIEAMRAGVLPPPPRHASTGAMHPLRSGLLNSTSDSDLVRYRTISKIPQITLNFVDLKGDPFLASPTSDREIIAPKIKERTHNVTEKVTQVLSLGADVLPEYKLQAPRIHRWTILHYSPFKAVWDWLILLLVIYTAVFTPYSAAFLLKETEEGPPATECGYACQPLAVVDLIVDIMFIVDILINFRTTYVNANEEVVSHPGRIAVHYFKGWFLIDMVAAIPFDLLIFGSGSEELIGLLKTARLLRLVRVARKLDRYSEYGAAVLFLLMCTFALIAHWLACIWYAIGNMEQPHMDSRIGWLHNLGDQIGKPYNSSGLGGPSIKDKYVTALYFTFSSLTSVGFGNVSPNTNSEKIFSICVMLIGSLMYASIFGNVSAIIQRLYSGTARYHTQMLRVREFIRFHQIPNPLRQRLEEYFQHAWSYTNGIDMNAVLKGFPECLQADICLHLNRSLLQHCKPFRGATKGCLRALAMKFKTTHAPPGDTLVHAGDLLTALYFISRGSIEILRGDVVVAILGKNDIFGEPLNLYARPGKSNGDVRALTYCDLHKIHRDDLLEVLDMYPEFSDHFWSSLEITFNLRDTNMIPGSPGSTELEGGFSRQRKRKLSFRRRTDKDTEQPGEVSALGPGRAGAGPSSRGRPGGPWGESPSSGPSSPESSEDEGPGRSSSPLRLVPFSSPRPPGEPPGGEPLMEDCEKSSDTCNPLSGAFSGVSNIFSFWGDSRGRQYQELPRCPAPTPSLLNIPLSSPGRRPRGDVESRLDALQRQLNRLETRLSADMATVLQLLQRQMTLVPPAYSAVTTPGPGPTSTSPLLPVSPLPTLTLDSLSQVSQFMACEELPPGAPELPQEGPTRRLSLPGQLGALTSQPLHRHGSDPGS

For the molecule `NC(c1cc(Cl)c(Cl)cc1O)C1CNC1` (centres unmarked) [Compound 52, 2-[amino(azetidin-3-yl)methyl]-4,5-dichlorophenol Trifluoroacetic Acid], the pIC50 at Kv1.3 potassium channel was greater than 5.00; on hERG channel, less than 4.52.
The like results for `N[C@@H](c1cc(Cl)c(Cl)cc1O)C1CCN(C(=O)[C@@H]2COCCO2)CC1` [Compound 170, 2-[(R)-amino([1-[(2S)-1,4-dioxane-2-carbonyl]piperidin-4-yl])methyl]-4,5-dichlorophenol trifluoroacetic acid] were, in that order, greater than 5.00 and greater than 4.52.
As for `N[C@@H](c1cc(Cl)c(Cl)cc1O)C1CCN(C(=O)c2ccc(=O)[nH]c2)CC1` [Compound 305, 5-[4-[(R)-amino(4,5-dichloro-2-hydroxyphenyl)methyl]piperidine-1-carbonyl]-1,2-dihydropyridin-2-one trifluoroacetic acid], the negative logarithm of the IC50 (pIC50) was greater than 6.30 at Kv1.3 potassium channel and less than 4.52 at hERG channel.
Regarding `CNC(c1cc(Cl)c(Cl)cc1O)C1CCNCC1` (centres unmarked) [Compound 31, 4,5-dichloro-2-[(methylamino)(piperidin-4-yl)methyl]phenol Trifluoroacetic Acid], the pIC50 on Kv1.3 potassium channel is greater than 5.00; at hERG channel, less than 4.52.
Taken in the same sequence, the figures for `O=C([C@@H]1CCNC1)N1CCC([C@@H](O)c2c(O)ccc(Cl)c2Cl)CC1` (single isomer, unassigned) [Compound 123, Trifluoroacetic Acid] were greater than 6.30 and less than 4.52.
As for `N[C@@H](c1cc(Cl)c(Cl)cc1O)C1CCN(C(=O)c2nnc[nH]2)CC1` [Compound 152, (R)-(4-(amino(4,5-dichloro-2-hydroxyphenyl)methyl)piperidin-1-yl)(1H-1,2,4-triazol-3-yl)methanone trifluoroacetic acid], the pIC50 is greater than 5.00 at Kv1.3 potassium channel and less than 4.52 against hERG channel.
Consider `C[C@H](N)C(=O)N1CCC([C@@H](N)c2cc(Cl)c(Cl)cc2O)CC1` (single isomer, unassigned) [Compound 76], for which the figures for the pIC50 at Kv1.3 potassium channel and on hERG channel were greater than 6.30 and less than 4.52, respectively.
In the case of `C[C@H](N)C(=O)N1CCC([C@H](N)c2cc(Cl)c(Cl)cc2O)CC1` (single isomer, unassigned) [Compound 75], the figures for the pIC50 at Kv1.3 potassium channel and on hERG channel were greater than 5.00 and less than 4.52, respectively.
Taken in the same sequence, the figures for `Cc1cc(O)c([C@H](N)C2CCN(C(=O)c3ccc4nccn4c3)CC2)cc1Cl` [Compound 238, 2-[(R)-amino(1-[imidazo[1,2-a]pyridine-6-carbonyl]piperidin-4-yl)methyl]-4-chloro-5-methylphenol trifluoroacetic acid] were greater than 6.30 and greater than 4.52.
Taken in the same sequence, the figures for `N[C@@H](c1cc(Cl)c(Cl)cc1O)C1CCN(C(=O)C2CNC(=O)C2)CC1` (stereo partly drawn) [Compound 223, 4-[4-[(R)-amino(4,5-dichloro-2-hydroxyphenyl)methyl]piperidine-1-carbonyl] pyrrolidin-2-one trifluoroacetic acid] were greater than 6.30 and less than 4.52.
Consider `N[C@@H](c1cc(Cl)c(Cl)cc1O)C1CCN(C(=O)N2CC(O)(CO)C2)CC1` [Compound 220, 1-[4-[(R)-amino(4,5-dichloro-2-hydroxyphenyl)methyl]piperidine-1-carbonyl]-3-(hydroxymethyl)azetidin-3-ol], for which the pIC50 at Kv1.3 potassium channel was greater than 6.30; against hERG channel, less than 4.52.
The like results for `CC(=O)N1CC(C(=O)N2CCC([C@@H](N)c3cc(Cl)c(Cl)cc3O)CC2)C1` [Compound 200, 1-(3-[4-[(R)-amino(4,5-dichloro-2-hydroxyphenyl)methyl]piperidine-1-carbonyl]azetidin-1-yl)ethan-1-one] were, in that order, greater than 5.00 and less than 4.52.
Taken in the same sequence, the figures for `C[C@@H](O)C(=O)N1CCC([C@@H](N)c2cc(Cl)c(Cl)cc2O)CC1` [Compound 105, (R)-1-(4-((R)-amino(4,5-dichloro-2-hydroxyphenyl)methyl)piperidin-1-yl)-2-hydroxypropan-1-one] were greater than 5.00 and less than 4.52.
Taken in the same sequence, the figures for `C[C@@H](O)[C@@H](O)C(=O)N1CCC([C@@H](N)c2cc(Cl)c(Cl)cc2O)CC1` (mixture of isomers) [Compound 281, 1-[4-[(R)-amino(4,5-dichloro-2-hydroxyphenyl)methyl]piperidin-1-yl]-(2R,3R)-rel-dihydroxybutan-1-one trifluoro-acetic acid] were greater than 6.30 and less than 4.52.
On to `Nc1nnc(N2CCC([C@@H](N)c3cc(Cl)c(Cl)cc3O)CC2)s1` [Compound 151, 2-[(R)-amino[1-(5-amino-1,3,4-thiadiazol-2-yl)piperidin-4-yl]methyl]-4,5-dichlorophenol Trifluoroacetic Acid], for which the pIC50 on Kv1.3 potassium channel was greater than 5.00; against hERG channel, greater than 4.52.
As for `N[C@@H](c1cc(Cl)c(Cl)cc1O)[C@@H]1CCC(=O)NC1` (single isomer, unassigned; diastereoisomer 2) [Compound 39, 5-(amino(4,5-dichloro-2-hydroxyphenyl)methyl)piperidin-2-one Diastereoisomer 2], the pIC50 is greater than 5.00 on Kv1.3 potassium channel and less than 4.52 against hERG channel.
Taken in the same sequence, the figures for `Cc1cc(O)c([C@H](N)C2CCN(C(=O)c3ccc4nncn4c3)CC2)cc1Cl` [Compound 242, (R)-[1,2,4]triazolo[4,3-a]pyridin-6-yl(4-(amino(5-chloro-2-hydroxy-4-methylphenyl)methyl)piperidin-1-yl)methanone trifluoroacetic acid] were greater than 6.30 and less than 4.52.
Taken in the same sequence, the figures for `N[C@@H](c1cc(Cl)c(Cl)cc1O)C1CCN(C(=O)[C@@H]2CCN2)CC1` [Compound 100, 2-[(R)-amino([1-[(2S)-azetidine-2-carbonyl]piperidin-4-yl])methyl]-4,5-dichlorophenol] were greater than 6.30 and less than 4.52.
Taken in the same sequence, the figures for `Nc1ccnc(N2CCC([C@@H](N)c3cc(Cl)c(Cl)cc3O)CC2)c1` [Compound 150, (R)-2-(amino(1-(4-aminopyridin-2-yl)piperidin-4-yl)methyl)-4,5-dichlorophenol Trifluoroacetic Acid] were greater than 6.30 and greater than 4.52.
For the molecule `N[C@@H](c1cc(Cl)c(Cl)cc1O)C1CCN(C(=O)[C@@H]2CNC(=O)C2)CC1` (single isomer, unassigned; isomer 1) [Compound 296], the negative logarithm of the IC50 (pIC50) at Kv1.3 potassium channel was greater than 6.30; at hERG channel it was less than 4.52.
`C[C@@](O)(c1cc(Cl)c(Cl)cc1O)C1CCNCC1` (single isomer, unassigned; isomer 1) [Compound 25, 4,5-dichloro-2-(1-hydroxy-1-(piperidin-4-yl)ethyl)phenol isomer 1]: the negative-log IC50 (pIC50) on Kv1.3 potassium channel was greater than 5.00.
On the same count and under the same terms, in the case of `N[C@@H](c1cc(Cl)c(Cl)cc1O)C1CCN(C(=O)C2CNC(=O)O2)CC1` (stereo partly drawn) [Compound 261, 5-[4-[(R)-amino(4,5-dichloro-2-hydroxyphenyl)methyl]piperidine-1-carbonyl]-1,3-oxazolidin-2-one trifluoroacetic acid] it was greater than 6.30.
Same read-out and setting: in the case of `CN[C@@H](c1cc(Cl)c(Cl)cc1O)C1CCN(C(=O)[C@H](O)CO)CC1` [Compound 337, (2R)-1-[4-[(R)-(4,5-dichloro-2-hydroxyphenyl)(methylamino)methyl]piperidin-1-yl]-2,3-dihydroxypropan-1-one] it was greater than 5.00; in that of `CC1(C)C[C@@H]([C@H](N)c2cc(Cl)c(Cl)cc2O)CCN1` (single isomer, unassigned; diastereoisomer 1) [Compound 72, 2-(amino(2,2-dimethylpiperidin-4-yl)methyl)-4,5-dichlorophenol Trifluoroacetic Acid Diastereoisomer 1], greater than 4.52; in that of `CN1C[C@H](C(=O)N2CCC([C@@H](N)c3cc(Cl)c(Cl)cc3O)CC2)OCC1=O` (single isomer, unassigned; isomer 1) [Compound 274], greater than 6.30.
Consider `CCNC(c1cc(Cl)c(Cl)cc1O)C1CCN(C(=O)C(O)CO)CC1` (centres unmarked) [Compound 182, 1-[4-[(4,5-dichloro-2-hydroxyphenyl)(ethylamino)methyl]piperidin-1-yl]-2,3-dihydroxypropan-1-one Trifluoroacetic Acid], for which the pIC50 at Kv1.3 potassium channel was greater than 5.00.
Regarding `CC(N)(c1cc(Cl)c(Cl)cc1O)C1CCNCC1` (centres unmarked) [Compound 40, 2-[1-amino-1-(piperidin-4-yl)ethyl]-4,5-dichlorophenol], at Kv1.3 potassium channel, the pIC50 is greater than 4.52.
The same measure, in the same setting: in the case of `Oc1cc(Cl)c(Cl)cc1C(C1CCNCC1)n1cccn1` (centres unmarked) [Compound 13, 4,5-dichloro-2-[piperidin-4-yl(1H-pyrazol-1-yl)methyl]phenol] it was greater than 5.00.
`NC(c1cc(Cl)c(Cl)cc1O)C1CCN(C(=O)NC2CC2)CC1` (centres unmarked) [Compound 57, 4-(amino(4,5-dichloro-2-hydroxyphenyl)methyl)-N-cyclopropylpiperidine-1-carboxamide]: the pIC50 at Kv1.3 potassium channel was greater than 5.00.
Same read-out and setting: under `CC(O)(c1cc(Cl)c(Cl)cc1O)C1CCNCC1` (centres unmarked) [Compound 3, 4,5-dichloro-2-[1-hydroxy-1-(piperidin-4-yl)ethyl]phenol] stands greater than 5.00; under `N[C@H](c1cc(Cl)c(Cl)cc1O)[C@@H]1CCCN(C(=O)[C@H](O)CO)C1` [Compound 330, (2R)-1-[(3R)-3-[(S)-amino(4,5-dichloro-2-hydroxyphenyl)methyl]piperidin-1-yl]-2,3-dihydroxypropan-1-one Trifluoroacetic Acid], less than 5.00.
As for `N[C@@H](c1cc(Cl)c(F)cc1O)C1CCN(C(=O)[C@H](O)CO)CC1` [Compound 285, (2R)-1-[4-[(R)-amino(5-chloro-4-fluoro-2-hydroxyphenyl)methyl]piperidin-1-yl]-2,3-dihydroxypropan-1-one Trifluoroacetic Acid], the pIC50 at Kv1.3 potassium channel was greater than 5.00.
Still for that read-out and setting: in the case of `CS(=O)(=O)NC(c1cc(Cl)c(Cl)cc1O)C1CCNCC1` (centres unmarked) [Compound 12, N-((4,5-dichloro-2-hydroxyphenyl)(piperidin-4-yl)methyl)methanesulfonamide] it was greater than 5.00.
